Test results taken from patent publication US7887840B2, “Pharmaceutical compositions comprising drug and concentration-enhancing polymers” (Bend Research, Inc., priority 2001, dated 2011).
Where a name gives a salt, the structure may show the parent alone.

Assay: in vitro dissolution test using a microcentrifuge method
Type: physicochemical
Parameters: AUC / AUC90: concentration or dose not given beside the values
Conditions: for Ziprasidone Concentration: 50 mM MOPS buffer with 150 mM NaCl, pH 7.4, 37° C., supernatant after centrifugation
Protocol: The dissolution of ziprasidone from the complex mixed with various concentration-enhancing polymers was evaluated in an in vitro dissolution test using a microcentrifuge method. […] The polymer amounts are expressed as wt % based on the weight of the complex. […] Ltd., Tokyo, Japan). […] Tests were performed in duplicate. The tubes were placed in a 37° C. temperature-controlled chamber, and 1.8 mL of 50 mM 4-morpholinepropanesulfonic acid (MOPS) buffer with 150 mM NaCl (pH 7.4) was added. The samples were quickly mixed using a vortex mixer for about 60 seconds. […] The resulting supernatant solution was then sampled and diluted 1:4 (by volume) with methanol and then analyzed by high-performance liquid chromatography (HPLC). A Phenomenex Ultracarb 5 ODS HPLC column was used with a mobile phase of 60 vol. % of 0.02 M KH2PO4 (pH 3.0), and 40 vol. % acetonitrile. UV detection was measured at 254 nm. The contents of the tubes were mixed on the vortex mixer and allowed to stand undisturbed at 37° C. until the next sample was taken. […] The concentrations of drug obtained in these samples are shown below. The dissolution of ziprasidone from these complexes mixed with concentration-enhancing polymer was evaluated using the in vitro dissolution test described in the Examples above.

AUC90 (dissolution AUC 0-90 min, MOPS buffer pH 7.4, 37° C.): 100 µg·min/mL
AUC (dissolution AUC up to 0 min, MOPS buffer pH 7.4, 37° C.): 0 µg·min/mL
AUC (dissolution AUC up to 4 min, MOPS buffer pH 7.4, 37° C.): 0 µg·min/mL
AUC (dissolution AUC up to 10 min, MOPS buffer pH 7.4, 37° C.): 0 µg·min/mL
AUC (dissolution AUC up to 30 min, MOPS buffer pH 7.4, 37° C.): 0 µg·min/mL
AUC (dissolution AUC up to 60 min, MOPS buffer pH 7.4, 37° C.): 0 µg·min/mL
AUC (dissolution AUC up to 90 min, MOPS buffer pH 7.4, 37° C.): 100 µg·min/mL
Cmax,90 (maximum ziprasidone concentration within 90 min, MOPS buffer pH 7.4, 37° C.): 3000 ng/mL
Ziprasidone Concentration (time 0 min): 0 µg/mL
Ziprasidone Concentration (time 4 min): 3 µg/mL
Ziprasidone Concentration (time 10 min): 1 µg/mL
Ziprasidone Concentration (time 30 min): 1 µg/mL
Ziprasidone Concentration (time 60 min): 1 µg/mL
Ziprasidone Concentration (time 90 min): 1 µg/mL
SMILES: O=C1Cc2cc(CCN3CCN(c4nsc5ccccc45)CC3)c(Cl)cc2N1 [Example C2, ziprasidone mesylate]
